# Experimental data taken from US6488933B2, “Preparations for the treatment of T cell mediated diseases” (Yeda Research and Development Co. Ltd., priority 1995, dated 2002).
# Tests used:
# IDDM = details: mice, subcutaneously (sc) in an oil vehicle (IFA); cited from earlier work
# NOD mice = assay: Antibody isotypes induced by p277(Val^6-Val^11) therapy, isotype ELISA (Example 3); assay type: in vivo, mouse; details: NOD mice 3 months old, treated in oil, FIG. 2
# Procedure: The sera of individual mice were assayed for the isotypes of their antibodies to p277(Val6-Val^11) after treatment (12-15 mice per group). The antibody isotypes were detected using an ELISA assay with isotype-specific developing antibody reagents (Southern Biotechnology Associates, Birmingham, Ala.). […] The columns in each experiment show results from equal numbers of mice; an apparent reduction in numbers of circles is caused by superimposition.
# autoimmune T cells = assay: p277(Val^6-Val^11)-peptide treatment: spontaneous T-cell responses and autoantibodies (summary statement); assay type: in vivo, mouse; details: peptide in an appropriate carrier
# [1] = test system: T cells reactive to the p277(Val^6-Val^11); assay: Cytokine profile of spleen cells of treated NOD mice, cytokine ELISA (Example 4); assay type: in vivo, mouse; details: spleen cells 5 weeks after treatment
# Excerpt: Concanavalin A (ConA), a T-cell mitogen, was used to activate total splenic T-cells as a control.
# Five weeks later, the spleens of the mice were removed and the spleen cells were pooled. […] The presence of the cytokines in the culture supernatants was quantitated by ELISA, using Pharmingen paired antibodies according to the Pharmingen cytokine ELISA protocol. Pharmingen recombinant mouse cytokines were used as standards for calibration curves. Briefly, flat-bottom 96-well microtiter plates were coated with rat anti-mouse cytokine mAbs for 18 h at 4° C., and the culture supernatants or recombinant mouse cytokines were added for 18 h at 4° C. The plates were washed, and biotinylated rat anti-mouse cytokine mAbs were added for 45 min at room temperature, then extensively washed, and avidin-alkaline phosphatase was added. The plates were washed, a chromogen substrate (p-nitrophenylphosphate) was added and samples were read at 405 nm in an ELISA reader. The concentrations of cytokines are shown as the OD readings. *P<0.01.
substance,measurement,setting,value
p32: human hsp60 positions 466-485: EIIKRTLKIPAMTIAXNAGV (EIIKRTLKIPAMTIAKNAGV),Peptide therapy for treatment of IDDM,IDDM,effective
"p277(Val^6-Val^11): SEQ ID NO 4, hsp60 437-460 with C-442 and C-447 changed to V: VLGGGVALLRVIPALDSLTPANED",TH1-type IgG2a antibodies,NOD mice,no TH1-type IgG2a antibodies induced
same,isotypes of the anti-p277 antibodies developing after treatment,NOD mice,exclusively of the IgG1 and IgG2b classes
same,"production of autoantibodies to hsp60, to GAD and to insulin",autoimmune T cells,abolished
same,spontaneous T-cell proliferative responses to epitopes of both hsp60 and GAD,autoimmune T cells,down-regulated
same,spontaneous T-cell response of the treated mice to a bacterial hsp60 peptide,autoimmune T cells,remained in the TH1 mode
same,IL-2 cytokine response to ConA,"[1]; 24 h incubation with Con A, FIG. 3B",maintained
same,IL-2 secretion in response to incubation with peptide p277(Val^6-Val^11),"[1]; 24 h incubation, vs control mice (PBS in Intralipid), P<0.01, FIG. 3A",significantly less
same,IFNγ cytokine response to ConA,"[1]; 48 h incubation with Con A, FIG. 3B",maintained
same,IFNγ secretion in response to incubation with peptide p277(Val^6-Val^11),"[1]; 48 h incubation, vs control mice (PBS in Intralipid), P<0.01, FIG. 3A",significantly less
p277: human hsp60 positions 437-460: VLGGGCALLRCIPALDSLTPANED,Peptide therapy for treatment of IDDM,IDDM,effective
p12: human hsp60 positions 166-185: EEIAQVATISANGDKEIGNI,Peptide therapy for treatment of IDDM,IDDM,effective
